Patent US20130273181A1, “METHODS AND COMPOSITIONS FOR DIAGNOSING AND TREATING MUSCLE MYOPATHY DISORDERS” (The Regents of the University of Colorado, a body Corporate, priority 2012, published 2013)
“Also recorded” adds a separate entry of the source. Read-outs that look alike come from different tables or passages of the source.

How the values were obtained:
[1] = test system: Ryr1^m1Nisw/m1Nisw E18.5 diaphragm muscle; experiment: EMG recordings / contractility of explanted E18.5 diaphragm muscle; type: cell-based, mouse; details: for Minutes to Contraction (Stand. Dev): EMG recordings, electrically stimulated; for Minutes to Contraction (Stand. Dev) / contractions / contractility (in words): PMA 50 nM, AICAR 500 μM; for Minutes to Contraction (Stand. Dev) / bath application time after which contractions were elicited / contractions / contractility (in words): Glibenclamide 2 μM, 5HA 200 μM; for bath application time after which contractions were elicited / explants showing contractions: n=6 for each; for explants showing contractions: after 1 hour bath application; for contractions / contractility (in words): bath application, KCl 6 mM, BaCl2 100 μM, potassium gluconate 6 mM, BayK8644 100 nM
Method: (§1) In other methods, whether increasing the excitability in E18.5 Ryr1^m1Nisw/m1Nisw whole diaphragm muscle could force the DHPR-RyR1 complex to initiate contractility was examined. In one exemplary method, electromyography recordings (EMG) was performed to examine whether whole muscle in vitro was sensitive to potassium-dependent depolarization by adding potassium to the bath to depolarize the membrane. […] Potassium induced excitability can also be triggered by blocking inward rectifier potassium channels.
(§2) DHPR and RyR1 interact through orthograde and retrograde signaling, but the Ryr1^m1Nisw/m1Nisw mutation is not located within this interaction region. Orthograde signaling from DHPR opens the RyR1 channel in the SR, while retrograde signaling from RyR1 controls the gating of DHPR.
(§3) FIG. 2g represents an exemplary graph of contractility of E18.5 diaphragm muscle from Ryr1^+/+, Ryr1^m1Nisw/m1Nisw, or RyR1^tm1Alle/tm1Alle embryos. After equilibration, all samples were bathed first in 6 mM KCl, followed by wash out and then addition of 100 μm BaCl as indicated. […] FIG. 2h provides an exemplary graph of contractility of E18.5 diaphragm muscle from Ryr1^+/+, Ryr1^m1Nisw/m1Nisw and RyR1^tm1Alle/tm1Alle embryos in 6 mM potassium gluconate (n=4).
(§4) In myotubes, the application of ryanodine at levels that activate RyR increases ERK1/2 protein levels and c-Fos and c-Jun transcript levels. ERK1/2 phosphorylates the most abundant potassium transport protein, Na^+, K^+-ATPase, which, in turn, induces an increase in ion transport. Na^+, K^+-ATPase is essential for maintaining the equilibrium potential of Na^+ and K^+ at the membrane. In one exemplary method, western blot was performed to analyze certain protein levels in Ryr1^m1Nisw/m1Nisw and Ryr1^tm1Alle/tm1Alle embryonic muscle extracts with beta-tubulin served as a loading control. […] In another exemplary method, Phorbol-12-myristate-13-acetate (PMA 50 nM), an activator of ERK1/2 phosphorylation, was applied to the bath of in vitro Ryr1^m1Nisw/m1Nisw diaphragm preparation to increase the phosphorylation of Na^+, K^+-ATPase.
(§5) In certain exemplary methods, restoration of membrane potential and muscle contractions by pharmacological stimulation was tested. First, effect of stimulation of AMPK activity on restoring the resting membrane potential of the mutant diaphragm muscle was determined. An AMPK activator, e.g. 5-aminoimidazole-4-carboxamide-1-β-d-ribofuranoside (AICAR, 500 μM), was bath applied to explanted Ryr1^m1Nisw/m1Nisw E18.5 diaphragm muscles. […] Next, other pharmacological stimuli were examined. […] Glibenclamide (2 μM) and 5-hydrodecanoic acid (5HA, 200 μM) selectively bind to SUR1 and SUR2 to block ATP-sensitive K^+ channels.

[2] = test system: Ryr1^tm1Alle/tm1Alle diaphragm muscle; experiment: Contractility of explanted E18.5 diaphragm muscle, Ryr1 null; type: cell-based, mouse; details: same bath concentrations
Method: as §1, §2, §3, §4, §5

[3] = test system: Ryr1^m1Nisw/m1Nisw diaphragm muscle; experiment: Sharp electrode recordings of resting membrane potential of diaphragm muscle; type: cell-based, mouse; details: for resting membrane potential (in words): Glibenclamide 2 μM, AICAR 500 μM; for resting membrane potential (in words) / resting membrane potential after treatment: PMA 50 nM; for shift in membrane potential / resting membrane potential after treatment: sharp electrode; for shift in membrane potential: PMA 50 nM vs ethanol, AICAR 500 μM n=18; for resting membrane potential after treatment: BaCl2 n=27
Method: Therefore, in some exemplary methods, whether voltage dependent orthograde signaling through the DHPR-RyR1 complex could be initiated through changes in membrane potential was first assessed.
as §1, §4, §5

[4] = test system: soleus muscle; experiment: Steady-state membrane potential (VREST) of two month old soleus muscle at varied extracellular potassium; type: cell-based, mouse; details: for VREST after drug addition: control 0.6% potassium diet, independent of extracellular potassium
[5] = test system: Ryr1^m1Nisw/+ mice; experiment: Grip strength test (vertical digital push-pull strain gauge); type: in vivo, mouse; details: 2 month old, four weeks of diet, Enalapril in water, or Glyburide 15 mg/kg/day oral gavage
[6] = test system: Ryr1^m1Nisw/+ mice; experiment: Hanging wire task (upper body muscle strength); type: in vivo, mouse; details: four weeks of diet, Enalapril in water, or Glyburide 15 mg/kg/day oral gavage
[7] = test system: Ryr1^m1Nisw/+ vastus lateralis muscle; experiment: Muscle histology (H&E central nuclei, COX staining) of vastus lateralis; type: in vivo, mouse; details: after four weeks treatment
Excerpt: CCD is diagnosed and subclassified by histopathological analysis using stains such as cytochrome oxidase (COX) and nicotinamide adenine dinucleotide hydride-tetrazolium reductase (NADH-TR) which highlight mitochondria and ATP synthesis, and hematoxylin and eosin stain (H&E) to mark nuclei. In normal muscle, nuclei are located at the periphery of the myofiber and the mitochondria reside throughout the myofiber. Muscle biopsies of CCD patients show centrally located nuclei, as well as disorganized areas in the center of the myofiber called cores that lack mitochondria and are devoid of metabolic activity; these occur in some but not all muscles and are reflective of cellular damage.
Pathological examination is the hallmark diagnosis of CCD. In one exemplary method, the effects of diet on muscle histology were studied. Centrally located nuclei and decreased mitochondrial activity were detected in Ryr1^m1Nisw/+ vastus lateralis muscle compared to Ryr1^+/+ muscle in low potassium and control diets (FIGS. 5c-5k). […] In addition, the CCD phenotype was also rescued by 5-hydrodecanoic acid (5HA), which blocks ATP-sensitive K^+ channels (FIG. 4 and Table 2). […]

[8] = RyR1^m1Nisw/+ soleus muscle, bumetanide 75 μM, BaCl2 50 μM
[9] = RyR1^m1Nisw/+ soleus muscle, bumetanide 75 μM, BaCl2 50 μM, Glibenclamide 2 μM, or chronic 5.2% potassium diet
[10] = wild type muscle, low extracellular potassium / Tetanus, bumetanide 75 μM, BaCl2 50 μM, Glibenclamide 2 μM

CCCCCC(O)CCCC(=O)O (stereo not shown) [5HA, 5-hydrodecanoic acid] was tested, and the “Minutes to Contraction (Stand. Dev)” value [1] was 106 (52) Minutes, the “bath application time after which contractions were elicited” value [1] was 2 h and the explants showing contractions [1] was 50%. For the same compound, the “contractions / contractility (in words)” value [1] was “rescued”.

NC(=O)c1ncn([C@@H]2O[C@H](CO)[C@@H](O)[C@H]2O)c1N [AICAR, 5-aminoimidazole-4-carboxamide-1-β-d-ribofuranoside] was tested, and the “Minutes to Contraction (Stand. Dev)” value [1] was “None”, the “contractions / contractility (in words)” value [1] was “unable to initiate contractions” and the “contractions / contractility (in words)” value [2] was “unable to initiate contractions”. The “resting membrane potential (in words)” value [3] was “restore the mutant resting membrane potential to normal levels” and the “shift in membrane potential” value [3] was −10.4+/−3.9 mV.

In the case of [Ba+2].[Cl-].[Cl-] [BaCl2], the “contractions / contractility (in words)” value [1] is reported as “induced stimulated bursts of activity and contractions”, the “contractions / contractility (in words)” value ([1]; listed as BaCl) is reported as “rescued” and the “contractions / contractility (in words)” value ([2]; listed as BaCl) is reported as “failed to contract”. For the same compound, the “resting membrane potential after treatment” value [3] was −68.5 mV, the “VREST phase (in words)” value [4] was “driven to phase 2” and the “VREST after drug addition” value [4, 8] was −91.7+/−3.8 mV. For the same compound, the “VREST phase (in words)” value [4, 9] was “driven to phase 2”.

With COC(=O)C1=C(C)NC(C)=C([N+](=O)[O-])C1c1ccccc1C(F)(F)F (stereo not shown) [BayK8644] the “contractions / contractility (in words)” value [1] was “induced contractions within minutes” and the “contractions / contractility (in words)” value [2] was “no contractions occurred”.

CCOC(=O)[C@H](CCc1ccccc1)N[C@@H](C)C(=O)N1CCC[C@H]1C(=O)O [Enalapril] was tested, and the “grip strength (in words)” value [5] was “increased grip strength”, the “muscle strength in hanging task (in words)” value [6] was “increased grip strength and muscle strength; also recorded: partial rescue of muscle strength” and the “centrally located nuclei / muscle histology (H&E)” value [7] was “mild improvement in muscle histology”.

For COc1ccc(Cl)cc1C(=O)NCCc1ccc(S(=O)(=O)NC(=O)NC2CCCCC2)cc1 [Glibenclamide], the “Minutes to Contraction (Stand. Dev)” value [1] was 67 (34) Minutes, the “bath application time after which contractions were elicited” value [1] was 2 h and the explants showing contractions [1] was 50%. For the same compound, the “resting membrane potential (in words)” value [3] was “normalized the resting membrane potential”, the “grip strength (in words)” value [5] was “Increased grip and hanging strength” and the “muscle strength in hanging task (in words)” value [6] was “increased grip strength and muscle strength; also recorded: Increased grip and hanging strength”. For the same compound, the “centrally located nuclei / muscle histology (H&E)” value ([7]; listed as Glyburide) was “lack of centrally-located nuclei; also recorded: rescue the clinical and pathological manifestations of CCD; also recorded: significant reduction in the number of internal nuclei”, the “VREST phase (in words)” value [4, 9] was “rescued the phase 2 VREST to phase 1” and the “VREST phase (in words)” value [4, 10] was “protected against phase 2 shifting from phase 1”.

With [Cl-].[K+] [KCl] the “contractions / contractility (in words)” value [1] was “induced bursts of electrical activity and contractions; also recorded: rescued” and the “contractions / contractility (in words)” value [2] was “failed to contract”.

CCCCCCCCCCCCCC(=O)O[C@@H]1[C@@H](C)[C@@]2(O)[C@@H](C=C(CO)C[C@]3(O)C(=O)C(C)=C[C@@H]23)[C@@H]2C(C)(C)[C@]12OC(C)=O [PMA, Phorbol-12-myristate-13-acetate] was tested, and the “time to contraction after addition” value [1] was at most 5 min, the “Minutes to Contraction (Stand. Dev)” value [1] was 4 (2) Minutes and the “contractions / contractility (in words)” value [1] was “strongly elicited contractions”. The “contractions / contractility (in words)” value [2] was “no effect”, the “resting membrane potential (in words)” value [3] was “normalized the membrane potential” and the “resting membrane potential after treatment” value [3] was −67.7 mV. For the same compound, the “shift in membrane potential” value [3] was −18.3+/−5.3 mV.

With CCCCNc1cc(C(=O)O)cc(S(N)(=O)=O)c1Oc1ccccc1 [bumetanide] the “VREST after drug addition” value [4, 8] was −92.3+/−4.8 mV, the “VREST phase (in words)” value [4, 9] was “driven to phase 1” and the “VREST phase (in words)” value [4, 10] was “driven to phase 1”.

O=C([O-])[C@H](O)[C@@H](O)[C@H](O)[C@H](O)CO.[K+] [potassium gluconate] was tested, and the “contractions / contractility (in words)” value [1] was “Contractions also transpired”.
